# US10179767B2 (GENENTECH, INC., priority 2015, dated 2019)
# Counter-ions that a name gives are not always drawn.
# Biological target: T1, hNav1.7 (Homo sapiens, UniProt Q15858)
# T1 construct: expressed in transfected cells
# Experiment: Tritiated sulfonamide binding to membranes from cells expressing hNav1.7 and the β1 subunit (Nav 1.7 ligand binding assay, competitive)
# Settings: competition with 100 pM [3H]compound, room temperature, 18 h
# Method: Tritiated Sulfonamide Binding to Membranes Isolated from Cells that Heterologously Express hNav1.7 and the β1 Subunit
# Preparation of membranes containing recombinantly expressed sodium channels: Frozen recombinant cell pellets were thawed on ice and diluted to 4 times the cell pellet weight with ice cold 50 mM Tris HCl, pH 7.4 buffer. The cell suspensions were homogenized on ice using a motorized glass dounce homogeniser. Homogenates were further diluted 8.4 times with ice cold 50 mM Tris HCl, pH 7.4 buffer and then centrifuged at 200×g at 4° C. for 15 min. The supernatants were collected and centrifuged at 10000×g at 4° C. for 50 min. The pellets were then re-suspended in 100 mM NaCl, 20 mM Tris HCl, pH 7.4 buffer containing 1% v/v protease inhibitors (Calbiochem) and re-homogenized on ice. The homogenized membranes were then processed through a syringe equipped with a 26 gauge needle. Protein concentrations were determined by Bradford Assay and the membranes were stored at −80° C.
# Radioligand Binding Studies:
# Saturation experiments. A competitive NaV1.7 inhibitor having a methyl group was tritiated. Three tritiums were incorporated in place of methyl hydrogens to generate [^3H]compound. Binding of this radioligand was preformed in 5 mL borosilicate glass test tubes at room temperature. Binding was initiated by adding membranes to increasing concentrations of [^3H]compound in 100 mM NaCl, 20 mM Tris HCl, pH 7.4 buffer containing 0.01% w/v bovine serum albumin (BSA) for 18 h. Non-specific binding was determined in the presence of 1 μM unlabelled compound. After 18 h, the reactants were filtered through GF/C glass fiber filters presoaked in 0.5% w/v polyethylene imine Filters were washed with 15 mL ice cold 100 mM NaCl, 20 mM Tris HCl, pH7.4 buffer containing 0.25% BSA to separate bound from free ligand. [^3H]compound bound to filters was quantified by liquid scintillation counting.
# Competitive Binding Experiments:
# Binding reactions were preformed in 96-well polypropylene plates at room temperature for 18 h. In 360 μL, membranes were incubated with 100 pM [^3H]compound and increasing concentrations of Test Compound. Non-specific binding was defined in the presence of 1 μM unlabelled compound. Reactions were transferred and filtered through 96-well glass fiber/C filter plates presoaked with 0.5% polyethylene imine. The filtered reactions were washed 5 times with 200 μL ice cold buffer containing 0.25% BSA. Bound radioactivity was determined by liquid scintillation counting. Data Analysis: For saturation experiments, non-specific binding was subtracted from total binding to provide specific binding and these values were recalculated in terms of pmol ligand bound per mg protein. Saturation curves were constructed and dissociation constants were calculated using the single site ligand binding model: Beq=(Bmax*X)/(X+Kd), where Beq is the amount of ligand bound at equilibrium, Bmax is the maximum receptor density, Kd is the dissociation constant for the ligand, and X is the free ligand concentration. For competition studies percent inhibition was determined and IC50 values were calculated using a 4 parameter logistic model (% inhibition=(A+((B−A)/(1+((x/C)⨣D)))) using XLfit, where A and B are the maximal and minimum inhibition respectively, C is the IC50 concentration and D is the (Hill) slope.
# T1 sequence (Q15858 whole entry): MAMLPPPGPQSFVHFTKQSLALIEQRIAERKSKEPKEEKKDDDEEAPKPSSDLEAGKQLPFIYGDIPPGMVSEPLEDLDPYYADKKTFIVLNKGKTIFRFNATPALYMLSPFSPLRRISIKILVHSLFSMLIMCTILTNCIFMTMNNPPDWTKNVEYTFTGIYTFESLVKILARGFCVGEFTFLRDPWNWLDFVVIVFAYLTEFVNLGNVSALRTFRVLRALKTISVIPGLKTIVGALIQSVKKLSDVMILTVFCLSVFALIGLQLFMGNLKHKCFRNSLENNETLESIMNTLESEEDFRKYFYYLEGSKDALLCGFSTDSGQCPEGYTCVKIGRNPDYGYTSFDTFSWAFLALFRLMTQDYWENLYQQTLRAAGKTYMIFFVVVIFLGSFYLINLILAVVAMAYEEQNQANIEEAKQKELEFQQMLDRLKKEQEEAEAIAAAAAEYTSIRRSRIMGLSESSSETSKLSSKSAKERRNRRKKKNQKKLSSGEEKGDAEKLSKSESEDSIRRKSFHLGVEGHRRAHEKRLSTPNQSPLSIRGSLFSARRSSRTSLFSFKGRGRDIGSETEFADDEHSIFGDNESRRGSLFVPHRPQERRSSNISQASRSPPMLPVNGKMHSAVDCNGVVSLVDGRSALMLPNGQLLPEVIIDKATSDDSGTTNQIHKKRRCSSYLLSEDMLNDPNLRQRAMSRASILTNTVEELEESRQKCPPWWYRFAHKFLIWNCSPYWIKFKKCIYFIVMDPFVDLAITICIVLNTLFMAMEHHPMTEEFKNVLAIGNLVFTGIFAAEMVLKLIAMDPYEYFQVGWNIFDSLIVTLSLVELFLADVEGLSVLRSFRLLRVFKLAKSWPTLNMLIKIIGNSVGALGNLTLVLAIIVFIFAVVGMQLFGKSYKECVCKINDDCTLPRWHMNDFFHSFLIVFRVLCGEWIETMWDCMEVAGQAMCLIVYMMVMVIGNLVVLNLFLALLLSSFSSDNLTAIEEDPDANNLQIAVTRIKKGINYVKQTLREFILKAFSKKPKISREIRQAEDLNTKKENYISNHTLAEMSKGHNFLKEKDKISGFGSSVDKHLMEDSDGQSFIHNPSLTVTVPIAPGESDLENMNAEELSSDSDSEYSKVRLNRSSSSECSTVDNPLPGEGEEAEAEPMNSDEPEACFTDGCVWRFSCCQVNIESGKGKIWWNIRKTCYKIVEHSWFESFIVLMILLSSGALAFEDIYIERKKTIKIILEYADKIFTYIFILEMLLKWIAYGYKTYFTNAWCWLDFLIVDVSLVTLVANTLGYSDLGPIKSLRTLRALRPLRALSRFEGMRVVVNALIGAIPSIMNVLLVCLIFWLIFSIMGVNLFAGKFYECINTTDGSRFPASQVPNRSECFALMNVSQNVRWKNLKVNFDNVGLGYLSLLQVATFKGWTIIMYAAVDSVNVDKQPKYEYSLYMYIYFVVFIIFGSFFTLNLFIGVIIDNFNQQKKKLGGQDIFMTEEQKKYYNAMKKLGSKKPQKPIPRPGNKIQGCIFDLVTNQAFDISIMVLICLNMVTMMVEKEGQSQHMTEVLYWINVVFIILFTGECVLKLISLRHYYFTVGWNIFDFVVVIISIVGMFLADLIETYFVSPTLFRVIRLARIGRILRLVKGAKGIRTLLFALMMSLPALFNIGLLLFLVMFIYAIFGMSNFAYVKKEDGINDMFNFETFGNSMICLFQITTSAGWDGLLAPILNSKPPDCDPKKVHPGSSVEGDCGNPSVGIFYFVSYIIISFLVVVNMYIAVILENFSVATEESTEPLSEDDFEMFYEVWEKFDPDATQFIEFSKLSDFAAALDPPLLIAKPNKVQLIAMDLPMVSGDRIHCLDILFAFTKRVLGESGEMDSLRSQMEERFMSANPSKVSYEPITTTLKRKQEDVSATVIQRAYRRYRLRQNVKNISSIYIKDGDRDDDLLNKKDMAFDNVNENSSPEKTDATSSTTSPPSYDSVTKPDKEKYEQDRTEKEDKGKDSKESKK
# T1 sequence (Q07699 19-218 partner): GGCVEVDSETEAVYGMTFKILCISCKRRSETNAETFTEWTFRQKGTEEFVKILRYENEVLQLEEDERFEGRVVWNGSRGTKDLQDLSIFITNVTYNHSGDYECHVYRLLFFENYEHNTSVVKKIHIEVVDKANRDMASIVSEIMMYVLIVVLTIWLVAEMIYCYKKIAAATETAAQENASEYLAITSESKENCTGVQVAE
row,IC50,SMILES
1,5.9 nM,"N#Cc1c(Cl)cc(Cl)cc1CN1CCC(COc2cc(F)c(C(=O)NS(=O)(=O)C3CC3)cc2C2CC2)CC1 [Example 17, 5-Cyclopropyl-N-(cyclopropylsulfonyl)-4-((1-(3,5-dichloro-2-cyanobenzyl)piperidin-4-yl)methoxy)-2-fluorobenzamide]"
2,4.4 nM,"COCC(c1cc(Cl)cc(Cl)c1F)N1CCC(COc2cc(F)c(C(=O)NS(C)(=O)=O)cc2C2CC2)CC1 (stereo not drawn) [Example 21, 5-cyclopropyl-4-((1-(1-(3,5-dichloro-2-fluorophenyl)-2-methoxyethyl)piperidin-4-yl)methoxy)-2-fluoro-N-(methylsulfonyl)benzamide]"
3,6 nM,"C[C@@H](c1ccc(F)c(Cl)c1)N1CCC(COc2cc(F)c(C(=O)NS(C)(=O)=O)cc2C2CC2)CC1 (single isomer, unassigned) [Example 36]"
4,4.1 nM,"C[C@@H](c1cc(F)cc(Cl)c1)N1CCC(F)(COc2cc(F)c(C(=O)NS(C)(=O)=O)cc2C2CC2)CC1 (single isomer, unassigned) [Example 24]"
5,3.1 nM,"C[C@@H](c1cc(Cl)c(F)c(Cl)c1)N1CCC(COc2cc(F)c(C(=O)NS(C)(=O)=O)cc2C2CC2)CC1 (single isomer, unassigned) [Example 38]"
6,5.7 nM,"COc1c(Cl)cc(Cl)cc1[C@H](C)N1CCC(COc2cc(F)c(C(=O)NS(C)(=O)=O)cc2C2CC2)CC1 (single isomer, unassigned) [Example 16]"
7,5.6 nM,"C[C@@H](c1ccc(Cl)c(Cl)c1)N1CCC(F)(COc2cc(F)c(C(=O)NS(C)(=O)=O)cc2C2CC2)CC1 (single isomer, unassigned) [Example 22]"
8,3 nM,"C[C@H](c1cc(Cl)c(F)c(Cl)c1)N1CCC(COc2cc(F)c(C(=O)NS(C)(=O)=O)cc2C2CC2)CC1 (single isomer, unassigned) [Example 37]"
9,2.4 nM,"CCS(=O)(=O)NC(=O)c1cc(C2CC2)c(OCC2CCN([C@H](C)c3cc(Cl)cc(Cl)c3F)CC2)cc1F (single isomer, unassigned) [Example 33]"
10,6 nM,"C[C@H](c1ccc(F)cc1Cl)N1CCC(F)(COc2cc(F)c(C(=O)NS(C)(=O)=O)cc2C2CC2)CC1 (single isomer, unassigned) [Example 19]"
11,4.9 nM,"CS(=O)(=O)NC(=O)c1cc(C2CC2)c(OCC2(F)CCN(Cc3cc(F)cc(Cl)c3)CC2)cc1F [Example 30, 4-((1-(3-Chloro-5-fluorobenzyl)-4-fluoropiperidin-4-yl)methoxy)-5-cyclopropyl-2-fluoro-N-(methylsulfonyl)benzamide]"
12,83 nM,"CS(=O)(=O)NC(=O)c1cc(C2CC2)c(O[C@H]2CN(Cc3ccc(F)cc3Cl)CC[C@@H]2F)cc1F (relative stereo) [Example 45, trans 4-((1-(2-chloro-4-fluorobenzyl)-4-fluoropiperidin-3-yl)oxy)-5-cyclopropyl-2-fluoro-N-(methylsulfonyl)benzamide]"
13,3.5 nM,"CS(=O)(=O)NC(=O)c1cc(C2CC2)c(OCC2(F)CCN(Cc3ccc(Cl)cc3Cl)CC2)cc1F [Example 20, 5-Cyclopropyl-4-((1-(2,4-dichlorobenzyl)-4-fluoropiperidin-4-yl)methoxy)-2-fluoro-N-(methylsulfonyl)benzamide]"
14,4.7 nM,"C[C@@H](c1ccc(F)c(Cl)c1)N1CCC(F)(COc2cc(F)c(C(=O)NS(C)(=O)=O)cc2C2CC2)CC1 (single isomer, unassigned) [Example 26]"
15,4.2 nM,"CC(C)(C#N)[C@H](c1cc(Cl)cc(Cl)c1)N1CCC(COc2cc(F)c(C(=O)NS(C)(=O)=O)cc2C2CC2)CC1 (single isomer, unassigned) [Example 11]"
16,4.5 nM,"CS(=O)(=O)NC(=O)c1cc(C2CC2)c(OCC2CCN(Cc3cc(C(F)(F)F)cc(Cl)c3C#N)CC2)cc1F [Example 3, 4-((1-(3-chloro-2-cyano-5-(trifluoromethyl)benzyl)piperidin-4-yl)methoxy)-5-cyclopropyl-2-fluoro-N-(methylsulfonyl)benzamide]"
17,12 nM,"CC(c1cc(Cl)cc(C2CC2)n1)N1CCC(COc2cc(F)c(C(=O)NS(C)(=O)=O)cc2C2CC2)CC1 (stereo not drawn) [Example 46, 4-((1-(1-(4-chloro-6-cyclopropylpyridin-2-yl)ethyl)piperidin-4-yl)methoxy)-5-cyclopropyl-2-fluoro-N-(methylsulfonyl)benzamide]"
18,5.7 nM,"COC1(COc2cc(F)c(C(=O)NS(=O)(=O)C3CC3)cc2C2CC2)CCN(Cc2cc(Cl)cc(Cl)c2)CC1 [Example 9, 5-Cyclopropyl-N-(cyclopropylsulfonyl)-4-((1-(3,5-dichlorobenzyl)-4-methoxypiperidin-4-yl)methoxy)-2-fluorobenzamide]"
19,9.9 nM,"CS(=O)(=O)NC(=O)c1cc(C2CC2)c(OCC2CCN([C@H](c3cc(Cl)cc(Cl)c3)C3COC3)CC2)cc1F (single isomer, unassigned) [Example 34]"
20,2 nM,"C[C@H](c1cc(F)cc(Cl)c1)N1CCC(F)(COc2cc(F)c(C(=O)NS(C)(=O)=O)cc2C2CC2)CC1 (single isomer, unassigned) [Example 25]"
21,8.6 nM,"C[C@@H](c1cc(Cl)cc(Cl)c1)N1CCC(COc2cc(F)c(C(=O)NS(=O)(=O)C3(F)CC3)cc2C2CC2)CC1 [Example 57, (S)-4-((2-cyclopropyl-5-fluoro-4-(((1-fluorocyclopropyl)sulfonyl)carbamoyl)phenoxy)methyl)-1-(1-(3,5-dichlorophenyl)ethyl)piperidin-1-ium trifluoroacetate]"
22,5.6 nM,"CC(C)Oc1ncc(CN2CCC(F)(COc3cc(F)c(C(=O)NS(C)(=O)=O)cc3C3CC3)CC2)cc1Cl [Example 55, 4-((1-((5-chloro-6-isopropoxypyridin-3-yl)methyl)-4-fluoropiperidin-4-yl)methoxy)-5-cyclopropyl-2-fluoro-N-(methylsulfonyl)benzamide]"
23,9.1 nM,"CC(c1cc(C(F)(F)F)cc(C2CC2)n1)N1CCC(COc2cc(F)c(C(=O)NS(C)(=O)=O)cc2C2CC2)CC1 (stereo not drawn) [Example 50, 5-cyclopropyl-4-((1-(1-(6-cyclopropyl-4-(trifluoromethyl)pyridin-2-yl)ethyl)piperidin-4-yl)methoxy)-2-fluoro-N-(methylsulfonyl)benzamide]"
24,9 nM,"CC(c1cc(Cl)cc(Cl)c1)N1CCC2(CC1)CC(Oc1cc(F)c(C(=O)NS(C)(=O)=O)cc1C1CC1)C2 (stereo not drawn) [Example 48, 5-cyclopropyl-4-((7-(1-(3,5-dichlorophenyl)ethyl)-7-azaspiro[3.5]nonan-2-yl)oxy)-2-fluoro-N-(methylsulfonyl)benzamide]"
25,6.6 nM,"C[C@@H](c1ccc(Cl)c(F)c1)N1CCC(COc2cc(F)c(C(=O)NS(C)(=O)=O)cc2C2CC2)CC1 (single isomer, unassigned) [Example 40]"
26,11 nM,"CC(c1cc(C(F)(F)F)cc(C2CC2)n1)N1CCC(COc2cc(F)c(C(=O)NS(=O)(=O)C3CC3)cc2C2CC2)CC1 (stereo not drawn) [Example 51, 5-cyclopropyl-4-((1-(1-(6-cyclopropyl-4-(trifluoromethyl)pyridin-2-yl)ethyl)piperidin-4-yl)methoxy)-N-(cyclopropylsulfonyl)-2-fluorobenzamide]"
27,9 nM,"CCS(=O)(=O)NC(=O)c1cc(C2CC2)c(OCC2(OC)CCN(Cc3cc(Cl)cc(Cl)c3)CC2)cc1F [Example 10, 5-Cyclopropyl-4-((1-(3,5-dichlorobenzyl)-4-methoxypiperidin-4-yl)methoxy)-N-(ethylsulfonyl)-2-fluorobenzamide]"
